According to patent US9221834B2 (Merck Sharp & Dohme Corp., priority 2010, dated 2015):

Legend:
[1] = target: T1, endogenous CETP from serum (Homo sapiens, UniProt P11597); assay: RTA assay using endogenous CETP from serum (95% RTA); type: biochemical; conditions: RTA assay in 95% human serum, labeled with an asterisk
T1 construct: For the transfer assay using endogenous CETP from serum (95% RTA); from tissue; host or cells: human serum
T1 sequence (P11597 18-493): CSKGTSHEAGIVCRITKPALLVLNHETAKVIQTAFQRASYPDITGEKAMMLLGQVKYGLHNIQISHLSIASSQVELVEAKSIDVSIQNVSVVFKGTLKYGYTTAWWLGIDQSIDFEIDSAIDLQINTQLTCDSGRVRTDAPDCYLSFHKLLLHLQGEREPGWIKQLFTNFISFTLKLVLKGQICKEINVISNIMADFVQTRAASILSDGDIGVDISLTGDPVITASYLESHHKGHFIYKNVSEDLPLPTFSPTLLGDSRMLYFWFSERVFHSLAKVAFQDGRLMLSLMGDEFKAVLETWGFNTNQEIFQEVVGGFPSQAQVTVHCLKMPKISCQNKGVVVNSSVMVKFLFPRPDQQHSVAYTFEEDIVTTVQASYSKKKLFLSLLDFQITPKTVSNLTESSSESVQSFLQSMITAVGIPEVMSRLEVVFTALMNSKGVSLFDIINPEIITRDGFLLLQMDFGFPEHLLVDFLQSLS
Procedure: In Vitro Radioactive Assays of CETP-Catalyzed CE and TG Transfer (RTA Assay)
Reagents and sources are: [3H] cholesteryl oleate (GE #TRK.886), [3H] Triolein (Perkin-Elmer NET-431), Butylated hydroxyl toluene (Aldrich, #D4740-4), DOPC (Sigma, #P6354), Sodium Bromide (Fisher scientific #5255-500), PEG 8000 (Fisher, #BP233-1), and human HDL (Intracel Corp #RP-036).
An in vitro assay for determining IC50's to identify compounds that inhibit CETP transfer activity is performed based on a modification of a published method (Morton and Zilversmit, (1981) A plasma inhibitor of triglyceride and cholesteryl ester transfer activities, J. Biol. Chem. 256(23), 11992-11995). The ability of inhibitors to alter CETP activity is performed using two different assays: one using recombinant CETP and one using an edogenous plasma source of CETP. Both assays measure the transfer of [3H] cholesteryl oleate or [3H]triolein from exogenous LDL to HDL.
Radiolabeled donor particles are generated by first combining 100 μl of 200 μM butylated hydroxyl toluene in CHCl3, 216 μL of 21.57 mM DOPC in EtOH, and either 500 μCi [3H]-triolein (Perkin Elmer #NET-431) or 500 μCi [3H]-cholesteryl oleate (GE #TRK886) in a glass tube. Reagents are mixed, dried under nitrogen, and then resuspended in 2 mL of 50 mM Tris, 27 μM EDTA at pH 7.4. After a brief vortex, the solution is sonicated until clear and mixed with 20 mL of fresh human serum. The mixture is incubated overnight at 37° C. The [3H] labeled LDL substrate is separated at 1.063 g/ml density by sequential ultracentrifugal flotation in NaBr according to the method by (Havel, Eder et al. 1955; Chapman, Goldstein et al. 1981). Once isolated the particles are dialyzed 3× in CETP buffer (50 mM Tris, pH 7.4, 100 mM NaCl, 1 mM EDTA). Human HDL is purchased from Intracel and used as the acceptor particles.
Transfer assays are performed in a 96-well v-bottom polypropylene plate. […] After mixing, plates are counted by liquid scintillation. […]

CETP = target: T2, CETP (Homo sapiens, UniProt P11597); assay: Scintillation Proximity Assay (SPA) for CETP Activity; type: biochemical
T2 construct: made in house
T2 sequence (P11597 18-493): T1 sequence (P11597 18-493)
Procedure: Protocol: Scintillation Proximity Assay (SPA) for CETP Activity
First low density lipoprotein (LDL) (Meridian) was biotinylated by incubating LDL with biotin for 1 hour on ice, after which it was dialyzed to remove free biotin. Then compounds at varying concentrations were incubated with 15 nM CETP (reagent production group, In Vitro Pharmacology, MRL Rahway) and 50 ug/ml of the biotinylated LDL in 50 mM HEPES, 150 mM NaCl, pH 7.4, for 1 hour at 37° C. The reaction was started by adding ^3H-cholesterol ester high density lipoprotein (HDL) (American Radiochemicals Corp) at a concentration of ˜0.6 nM. The reaction proceeded for 2 hours at 37° C., after which time it was quenched by the addition of 12% acetic acid. PVT streptavadin-coated scintillation proximity beads, which had been brought to room temperature, were then added at a concentration of 4 mg/ml. The assay was then mixed and counted after one half hour in a Microbeta plate reader.

[2] = torcetrapib and atorvastatin concomitantly compared with atorvastatin alone; cited from earlier work

Structure (SMILES) | IC50 [1] | also measured
COC(=O)c1ccc(-c2cc(-c3cnc(N4CCC4)nc3CN3C(=O)O[C@H](c4cc(C(F)(F)F)cc(C(F)(F)F)c4)[C@@H]3C)c(F)cc2F)c(C)c1 [Example 142] | 145 nM | –
Cc1cc(C(=O)O)ccc1-c1cc(-c2cnc(N3CCC3)nc2CN2C(=O)O[C@H](c3cc(C(F)(F)F)cc(C(F)(F)F)c3)[C@@H]2C)c(F)cc1F [Example 170] | 110 nM | –
COc1ccc(CCC(=O)O)cc1-c1cnc(N2CCC2)nc1CN1C(=O)O[C@H](c2cccc(F)c2)[C@@H]1C [Example 277] | 35 nM | –
COc1cc(F)c(C(C)C)cc1-c1ccc(-n2cccn2)nc1CN1C(=O)O[C@H](c2cc(C(F)(F)F)cc(C(F)(F)F)c2)[C@@H]1C [Example 299, (4S,5R)-5-[3,5-bis(trifluoromethyl)phenyl]-3-({3-[4-fluoro-2-methoxy-5-(propan-2-yl)phenyl]-6-(1H-pyrazol-1-yl)pyridin-2-yl}methyl)-4-methyl-1,3-oxazolidin-2-one] | – | IC50 (CETP): 55.8 nM
CCOC(=O)N1c2ccc(C(F)(F)F)cc2[C@@H](N(Cc2cc(C(F)(F)F)cc(C(F)(F)F)c2)C(=O)OC)C[C@H]1CC [torcetrapib, Torcetrapib] | – | incidence of mortality [2]: higher incidence of mortality
